From US9175305B2, “Mutant hydroxyphenylpyruvate dioxygenase polypeptides and methods of use” (Syngenta Participations AG, priority 2009, dated 2015)
Where “and” joins values, the source holds several entries; their conditions need not be identical. Equal values may be shown once. Read-outs that look alike come from different tables or passages of the source.

Experiments:
HPPD SEQ ID NO:14 = HPPD SEQ ID NO:14 (Avena sativa, UniProt A0ACD5V6K6, DEL109-109); assay: biochemical; assay type: binding
HPPD SEQ ID NO:15 = HPPD SEQ ID NO:15 (Avena sativa, UniProt A0ACD5V6K6, DEL109-109/Q298A); assay: biochemical; assay type: binding
HPPD SEQ ID NO:16 = HPPD SEQ ID NO:16 (Avena sativa, UniProt A0ACD5V6K6, DEL109-109/Q298G); assay: biochemical; assay type: binding
HPPD SEQ ID NO:19 = HPPD SEQ ID NO:19 (Avena sativa, UniProt A0ACD5V6K6, DEL109-109/I285A); assay: biochemical; assay type: binding
HPPD SEQ ID NO:20 = HPPD SEQ ID NO:20 (Avena sativa, UniProt A0ACD5V6K6, DEL109-109/I285S); assay: biochemical; assay type: binding
HPPD SEQ ID NO:21 = HPPD SEQ ID NO:21 (Avena sativa, UniProt A0ACD5V6K6, DEL109-109/I285V); assay: biochemical; assay type: binding
HPPD SEQ ID NO:22 = HPPD SEQ ID NO:22 (Avena sativa, UniProt A0ACD5V6K6, DEL109-109/L256M); assay: biochemical; assay type: binding
HPPD SEQ ID NO:24 = HPPD SEQ ID NO:24 (Avena sativa, UniProt A0ACD5V6K6, DEL109-109/L359M); assay: biochemical; assay type: binding
HPPD SEQ ID NO:25 = HPPD SEQ ID NO:25 (Avena sativa, UniProt A0ACD5V6K6, DEL109-109/L359A); assay: biochemical; assay type: binding
HPPD SEQ ID NO:26 = HPPD SEQ ID NO:26 (Avena sativa, UniProt A0ACD5V6K6, DEL109-109/L256M/L359M); assay: biochemical; assay type: binding; settings: read-out: koff (k1)
Description: On rates (governed by an association rate constant, kon) for the formation of the enzyme: inhibitor complexes, EI and off rates (governed by a dissociation rate constant, koff) were determined by methods known in the art and essentially as described in Hawkes et al. (2001) Proc. Bright. Crop. Prot. Conf. Weeds, 2:563-568 and in PCT Patent App. Pub. No. WO 02/46387).
For example, on rates were measured by, at zero time, adding ˜60 pmoles HPPD to 50 mM BisTrisPropane buffer at pH7.0 and at 25° C. containing 25 mM Na ascorbate, 4 μg/ml bovine catalase (Sigma, St. Louis, Mo.) and an excess (˜300 pmoles) of ^14C inhibitor in a total assay volume of 425 μl and, at various time points (0-180 s), quenching the radiolabel binding reaction by addition and rapid mixing of 100 μl ‘cold’ 1 mM structure A. Protein samples quenched at different times were then exchanged into 50 mM BisTrisPropane buffer at pH 7.0 containing 0.1M KCl by rapid chromatography down a NAP5 G25 Sephadex column (GE Healthcare Ltd, Buckinghamshire UK) and the amount of ^14C bound to protein fractions quantified in Optiphase scintillant using a Tri-Carb 2900TR scintillation counter (Perkin Elmer, Wellesley, Mass.). The data were fit according to the scheme below in order to derive the value of the apparent second order rate constant, k2, governing the association rate of enzyme and radiolabelled inhibitor. […]

Jack w/t = assay: herbicide spray test on soybean; assay type: in vivo; settings: C 400 g/ha, V2 growth stage, 14 DAT, average of n=7
Description: Each data point represents the average damage score from n=7 replicates.
Plants were in 4×4×4 inch plastic pots and grown under a 15/9 hour light regime (daylight supplemented by artificial light in greenhouses) at a minimum night-time temperature of 18° C. and maximum daytime temperature of 27° C. Soil was regular VBRC mix (1:1 mixture of Vero field soil and Fafard Mix II) where Vero field soil is 98% sand and 2% clay. […] Spray volume was 150 L/ha and the damage scores reflect assessments at 14 DAT.

Sequence of HPPD SEQ ID NO:21 (A0ACD5V6K6 entry or part of it DEL109-109/I285V): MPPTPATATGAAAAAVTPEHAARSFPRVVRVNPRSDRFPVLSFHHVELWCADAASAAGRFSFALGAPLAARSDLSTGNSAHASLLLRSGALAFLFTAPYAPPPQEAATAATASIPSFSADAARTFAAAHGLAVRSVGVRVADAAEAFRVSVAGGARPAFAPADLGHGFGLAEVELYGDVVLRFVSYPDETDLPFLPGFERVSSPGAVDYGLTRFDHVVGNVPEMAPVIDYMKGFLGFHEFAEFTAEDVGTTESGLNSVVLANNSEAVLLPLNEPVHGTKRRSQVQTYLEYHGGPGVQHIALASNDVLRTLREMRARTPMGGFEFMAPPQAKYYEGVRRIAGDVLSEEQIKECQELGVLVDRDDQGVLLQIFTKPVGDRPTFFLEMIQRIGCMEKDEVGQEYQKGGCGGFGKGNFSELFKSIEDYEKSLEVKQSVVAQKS
Sequence of HPPD SEQ ID NO:22 (A0ACD5V6K6 entry or part of it DEL109-109/L256M): as the sequence (A0ACD5V6K6 entry or part of it DEL109-109/I285V) above, with L255M, V284I counted along it
Sequence of HPPD SEQ ID NO:14 (A0ACD5V6K6 entry or part of it DEL109-109): as the sequence (A0ACD5V6K6 entry or part of it DEL109-109/I285V) above, with V284I counted along it
Sequence of HPPD SEQ ID NO:19 (A0ACD5V6K6 entry or part of it DEL109-109/I285A): as the sequence (A0ACD5V6K6 entry or part of it DEL109-109/I285V) above, with V284A counted along it
Sequence of HPPD SEQ ID NO:20 (A0ACD5V6K6 entry or part of it DEL109-109/I285S): as the sequence (A0ACD5V6K6 entry or part of it DEL109-109/I285V) above, with V284S counted along it
Sequence of HPPD SEQ ID NO:25 (A0ACD5V6K6 entry or part of it DEL109-109/L359A): as the sequence (A0ACD5V6K6 entry or part of it DEL109-109/I285V) above, with V284I, L358A counted along it
Sequence of HPPD SEQ ID NO:24 (A0ACD5V6K6 entry or part of it DEL109-109/L359M): as the sequence (A0ACD5V6K6 entry or part of it DEL109-109/I285V) above, with V284I, L358M counted along it
Sequence of HPPD SEQ ID NO:15 (A0ACD5V6K6 entry or part of it DEL109-109/Q298A): as the sequence (A0ACD5V6K6 entry or part of it DEL109-109/I285V) above, with V284I, Q297A counted along it
Sequence of HPPD SEQ ID NO:16 (A0ACD5V6K6 entry or part of it DEL109-109/Q298G): as the sequence (A0ACD5V6K6 entry or part of it DEL109-109/I285V) above, with V284I, Q297G counted along it
Sequence of HPPD SEQ ID NO:26 (A0ACD5V6K6 entry or part of it DEL109-109/L256M/L359M): as the sequence (A0ACD5V6K6 entry or part of it DEL109-109/I285V) above, with L255M, V284I, L358M counted along it

For `COCCOCc1nc(C(F)(F)F)ccc1C(=O)C1C(=O)C2CCC(C2)C1=O` (stereo not drawn) [Structure C], the “On rate, activity-based method” value (HPPD SEQ ID NO:14; 25° C., enzyme activity-based method) was 7800 M⁻¹ s⁻¹ and 7600 M⁻¹ s⁻¹ and 7200 M⁻¹ s⁻¹ and 10000 M⁻¹ s⁻¹, the kon (HPPD SEQ ID NO:14; 25° C., enzyme activity-based method, read-out: On rate, activity-based method) was 7500 M⁻¹ s⁻¹ and the Kd/Km ratio (HPPD SEQ ID NO:14; HPPD SEQ ID NO:14) was 0.0017. The Kd (HPPD SEQ ID NO:14; Kd, estimated from on and off rates, 25° C.) was 9.4 nM, the koff (HPPD SEQ ID NO:14; read-out: koff (k1)) was 7.04e-05 s⁻¹ and the kon (HPPD SEQ ID NO:14; read-out: kon (k2)) was 7500 M⁻¹ s⁻¹. For the same molecule, the Kd (HPPD SEQ ID NO:15) was 17.7 nM, the koff (HPPD SEQ ID NO:15; read-out: koff (k1)) was 0.000113 s⁻¹ and the kon (HPPD SEQ ID NO:15; read-out: kon (k2)) was 7500 M⁻¹ s⁻¹. For the same molecule, the Kd (HPPD SEQ ID NO:16) was 26.7 nM, the koff (HPPD SEQ ID NO:16; read-out: koff (k1)) was 0.00012 s⁻¹ and the kon (HPPD SEQ ID NO:16; read-out: kon (k2)) was 4500 M⁻¹ s⁻¹. For the same molecule, the Kd (HPPD SEQ ID NO:19) was 8.9 nM, the koff (HPPD SEQ ID NO:19; read-out: koff (k1)) was 6.6e-05 s⁻¹ and the kon (HPPD SEQ ID NO:19; read-out: kon (k2)) was 7500 M⁻¹ s⁻¹. For the same molecule, the Kd (HPPD SEQ ID NO:20) was 6.6 nM, the koff (HPPD SEQ ID NO:20; read-out: koff (k1)) was 6.6e-05 s⁻¹ and the kon (HPPD SEQ ID NO:20; read-out: kon (k2)) was 10100 M⁻¹ s⁻¹. The Kd (HPPD SEQ ID NO:21) was 11.9 nM, the koff (HPPD SEQ ID NO:21; read-out: koff (k1)) was 9e-05 s⁻¹ and the kon (HPPD SEQ ID NO:21; read-out: kon (k2)) was 7500 M⁻¹ s⁻¹. It also gave a Kd (HPPD SEQ ID NO:22) of 23.9 nM, a koff (HPPD SEQ ID NO:22; read-out: koff (k1)) of 9e-05 s⁻¹ and a kon (HPPD SEQ ID NO:22; read-out: kon (k2)) of 4400 M⁻¹ s⁻¹. The Kd (HPPD SEQ ID NO:24) was 16 nM, the “SEQ ID NO:24 superior to SEQ ID NO:14 (in vitro, in particular off rate data)” value (HPPD SEQ ID NO:24) was “neutral” and the koff (HPPD SEQ ID NO:24; read-out: koff (k1)) was 7.82e-05 s⁻¹. For the same molecule, the kon (HPPD SEQ ID NO:24; read-out: kon (k2)) was 4900 M⁻¹ s⁻¹, the Kd (HPPD SEQ ID NO:25) was 23 nM and the koff (HPPD SEQ ID NO:25; read-out: koff (k1)) was 0.000113 s⁻¹. The kon (HPPD SEQ ID NO:25; read-out: kon (k2)) was 4800 M⁻¹ s⁻¹, the koff (HPPD SEQ ID NO:26) was 9e-05 s⁻¹ and the “% dam.” value (Jack w/t) was 82.1%.
